This test deals with HCT-116 cells stably transfected with a Luciferase reporter gene under the control of HIF-responsive element. The test is described as follows: HIF-Luciferase Assay. Type of test: cell-based. To be noted: Homo sapiens, HCT-116, HIF-Luciferase Assay, HCT-116 reporter cells, overnight at 1% oxygen. The protocol: HCT-116 cells stably transfected with a Luciferase reporter gene under the control of HIF-responsive element were plated in white 96- or 384-well plates at 30,000 or 5,000 cells/well, respectively, in 50 μL/well media (RPMI with 10% fetal bovine serum and 100 μg/mL Hygromycin). Cells were incubated overnight at 37° C. in a humidified incubator containing 5% CO2 under normal oxygen. The next day test compounds were added to the wells at various concentrations (0-10 μM, 0.1% final DMSO concentration) and placed in a hypoxic chamber overnight at 1% oxygen. Following the exposure to hypoxic conditions, 50 μL/well of Bright Glo reagent (Promega, Wisconsin, USA) was added to the wells and luminescence was measured after 5 min. Cells incubated under normal oxygen levels were used as background control. […] Compounds that have IC50 values between 1 μM and 10 μM include those of Examples 8, 16, 38, 39, 40, 41, 42, 43, 47, 48, 53, 54, 56, 57, 66, 69, and 72.

With `COCC(=O)Nc1ccc(-c2noc(-c3cc(C)n(Cc4ccc(C)cc4)n3)n2)cc1` [Example 27, 2-methoxy-N-(4-{5-[5-methyl-1-(4-methylbenzyl)-1H-pyrazol-3-yl]-1,2,4-oxadiazol-3-yl}phenyl)acetamide], under “potency groups”, the 50% inhibitory concentration (IC50) – broadly, the concentration that inhibits the measured activity by half – is at most 1000 nM.

Take `Cc1ccc(Cn2nc(-c3nc(-c4ccc(OC(F)(F)F)cc4)c[nH]3)cc2C)cc1` [Example 65, 5-Methyl-1-(4-methylbenzyl)-3-{4-[4-(trifluoromethoxy)phenyl]-1H-imidazol-2-yl}-1H-pyrazole]: the 50% inhibitory concentration (IC50) (potency groups) was at most 1000 nM.

For `Cc1ccc(Cn2nc(-c3nc4ccc(C#N)cc4[nH]3)cc2C)cc1` [Example 54, 2-[5-methyl-1-(4-methylbenzyl)-1H-pyrazol-3-yl]-1H-benzimidazole-6-carbonitrile], the IC50 (potency groups) fell in the range of 1000 to 10000 nM.

`Cc1ccc(Cn2nc(-c3nc(-c4ccc(N5CCOCC5)cc4)no3)cc2C)cc1` [Example 21, 4-(4-{5-[5-Methyl-1-(4-methylbenzyl)-1H-pyrazol-3-yl]-1,2,4-oxadiazol-3-yl}phenyl)morpholine] registered an IC50 (potency groups) of at most 1000 nM.

Regarding `Cc1ccc(Cn2nc(-c3nc4ccc(Cl)cc4[nH]3)cc2C)cc1` [Example 41, 6-chloro-2-[5-methyl-1-(4-methylbenzyl)-1H-pyrazol-3-yl]-1H-benzimidazole], the IC50 (potency groups) lay in the range of 1000 to 10000 nM.

`Cc1ccc(Cn2nc(-c3nc4cc(-c5cccc(F)c5)ccc4o3)cc2C)cc1` [Example 34, 5-(3-fluorophenyl)-2-[5-methyl-1-(4-methylbenzyl)-1H-pyrazol-3-yl]-1,3-benzoxazole]: the half-maximal inhibitory concentration (IC50) (potency groups) was at most 1000 nM.

Regarding `Cc1ccc(Cn2nc(-c3nc(-c4ccc(C(C)(C)C)cc4)no3)cc2C)cc1` [Example 4, 3-(4-tert-butylphenyl)-5-[5-methyl-1-(4-methylbenzyl)-1H-pyrazol-3-yl]-1,2,4-oxadiazole], the half-maximal inhibitory concentration (IC50) was 5 nM (individual values) and at most 1000 nM (potency groups).

For `Cc1ccc(Cn2nc(-c3nc4ccc(-c5cccc(F)c5)cc4[nH]3)cc2C)cc1` [Example 61, 6-(3-fluorophenyl)-2-[5-methyl-1-(4-methylbenzyl)-1H-pyrazol-3-yl]-1H-benzimidazole], the IC50 (potency groups) is at most 1000 nM.

`Cc1ccc(Cn2nc(-c3nc(-c4ccc(C5CCCCC5)cc4)no3)cc2C)cc1` [Example 11, 3-(4-cyclohexylphenyl)-5-[5-methyl-1-(4-methylbenzyl)-1H-pyrazol-3-yl]-1,2,4-oxadiazole]: the IC50 (potency groups) was at most 1000 nM.

In the case of `Cc1ccc(Cn2nc(C3=NC(c4ccccc4)CO3)cc2C)cc1` (stereo not drawn) [Example 69, 2-[5-Methyl-1-(4-methylbenzyl)-1H-pyrazol-3-yl]-4-phenyl-4,5-dihydro-1,3-oxazole], the IC50 (potency groups) fell in the range of 1000 to 10000 nM.

With `Cc1ccc(C(C)n2nc(-c3nc(-c4ccc(Br)cc4)no3)cc2C)cc1` (stereo not drawn) [Example 8, 3-(4-bromophenyl)-5-{5-methyl-1-[1-(4-methylphenyl)ethyl]-1H-pyrazol-3-yl}-1,2,4-oxadiazole], for the setting “potency groups”, the half-inhibitory concentration (IC50) fell in the range of 1000 to 10000 nM.

Consider `Cc1ccc(Cn2nc(-c3nc4ccc(N5CCCCC5)cc4[nH]3)cc2C)cc1` [Example 49, 2-[5-methyl-1-(4-methylbenzyl)-1H-pyrazol-3-yl]-6-piperidin-1-yl-1H-benzimidazole], for which the IC50 (potency groups) was at most 1000 nM.

On to `Cc1ccc(Cn2nc(-c3nc(-c4ccc(-c5ccc(Cl)cc5)cc4)co3)cc2C)cc1` [Example 76, 4-(4′-chlorobiphenyl-4-yl)-2-[5-methyl-1-(4-methylbenzyl)-1H-pyrazol-3-yl]-1,3-oxazole], for which the IC50 (potency groups) is at most 1000 nM.

For the compound `Cc1ccc(Cn2nc(-c3nc(-c4ccc(C(F)(F)F)cc4)no3)cc2C)cc1` [Example 7, 5-[5-methyl-1-(4-methylbenzyl)-1H-pyrazol-3-yl]-3-[4-(trifluoromethyl)phenyl]-1,2,4-oxadiazole], the IC50 (potency groups) is at most 1000 nM.

With `Cc1ccc(Cn2nc(-c3nc(-c4ccc(Br)cc4)no3)cc2C)cc1` [Example 3, 3-(4-bromophenyl)-5-[5-methyl-1-(4-methylbenzyl)-1H-pyrazol-3-yl]-1,2,4-oxadiazole], the 50% inhibitory concentration (IC50) (potency groups) is at most 1000 nM.

As for `Cc1ccc(Cn2nc(-c3nc(-c4ccc(C(C)(C)F)cc4)no3)cc2C)cc1` [Example 103, 3-[4-(1-fluoro-1-methylethyl)phenyl]-5-[5-methyl-1-(4-methylbenzyl)-1H-pyrazol-3-yl]-1,2,4-oxadiazole], the midpoint of inhibition (individual values), the IC50, lay at 10 nM.

In turn, `Cc1cc(-c2nc(-c3ccc(OC(F)(F)F)cc3)no2)nn1Cc1ccc(C#N)cc1` [Example 121, 4-[(5-methyl-3-3-[4-(trifluoromethoxy)phenyl]-1,2,4-oxadiazol-5-yl-1H-pyrazol-1-yl)methyl]benzonitrile] registered an IC50 (individual values) of 30 nM.

Under “individual values”, `Cc1ccc(Cn2nc(-c3nc(-c4ccc(C5CCCCC5)cc4)co3)cc2C)cc1` [Example 81, 4-(4-Cyclohex-1-ylphenyl)-2-[5-methyl-1-(4-methylbenzyl)-1H-pyrazol-3-yl]-1,3-oxazole] yielded an IC50 of 50 nM.

For the compound `Cc1ccc(Cn2nc(-c3nc4ccc(Oc5ccccc5)cc4o3)cc2C)cc1` [Example 30, 2-[5-methyl-1-(4-methylbenzyl)-1H-pyrazol-3-yl]-6-phenoxy-1,3-benzoxazole], the IC50 (potency groups) was at most 1000 nM.

On to `Cc1ccc(Cn2nc(-c3nc4cc(-c5cccc(Cl)c5)ccc4o3)cc2C)cc1` [Example 36, 5-(3-chlorophenyl)-2-[5-methyl-1-(4-methylbenzyl)-1H-pyrazol-3-yl]-1,3-benzoxazole], for which the IC50 (potency groups) was at most 1000 nM.

In the case of `Cc1ccc(Cn2nc(-c3nc(-c4ccc(F)cc4)no3)cc2C)cc1` [Example 10, 3-(4-fluorophenyl)-5-[5-methyl-1-(4-methylbenzyl)-1H-pyrazol-3-yl]-1,2,4-oxadiazole], the IC50 (potency groups) is at most 1000 nM.

`Cc1ccc(Cn2nc(-c3nc4cc5ccccc5cc4[nH]3)cc2C)cc1` [Example 47, 2-[5-methyl-1-(4-methylbenzyl)-1H-pyrazol-3-yl]-1H-naphtho[2,3-d]imidazole]: where the note is “potency groups”, the IC50 lay in the range of 1000 to 10000 nM.

`Cc1ccc(Cn2nc(-c3nc(-c4ccccc4)c(-c4ccccc4)[nH]3)cc2C)cc1` [Example 66, 3-(4,5-diphenyl-1H-imidazol-2-yl)-5-methyl-1-(4-methylbenzyl)-1H-pyrazole] showed a half-maximal inhibitory concentration (IC50) (potency groups) of 1000 to 10000 nM.

As for `Cc1ccc(Cn2nc(-c3nc(-c4ccccc4)no3)cc2C)cc1` [Example 9, 5-[5-methyl-1-(4-methylbenzyl)-1H-pyrazol-3-yl]-3-phenyl-1,2,4-oxadiazole], the IC50 (potency groups) is at most 1000 nM.

The compound `Cc1ccc(Cn2nc(-c3nc(-c4cccnc4)no3)cc2C)cc1` [Example 16, 3-{5-[5-methyl-1-(4-methylbenzyl)-1H-pyrazol-3-yl]-1,2,4-oxadiazol-3-yl}pyridine] gave a 50% inhibitory concentration (IC50) (potency groups) of 1000 to 10000 nM.

Take `Cc1ccc(Cn2nc(-c3nc4cc(-c5ccccc5)ccc4o3)cc2C)cc1` [Example 29, 2-[5-Methyl-1-(4-methylbenzyl)-1H-pyrazol-3-yl]-5-phenyl-1,3-benzoxazole]: the concentration for half-maximal inhibition (IC50) (potency groups) is at most 1000 nM.

In turn, `Cc1ccc(Cn2nc(-c3nc4ccc(N5CCOCC5)cc4[nH]3)cc2C)cc1` [Example 53, 2-[5-methyl-1-(4-methylbenzyl)-1H-pyrazol-3-yl]-6-morpholin-4-yl-1H-benzimidazole] gave a concentration for half-maximal inhibition (IC50) (potency groups) of 1000 to 10000 nM.

Consider `Cc1ccc(Cn2nc(-c3nc(-c4ccc(N5CCOC5=O)cc4)no3)cc2C)cc1` [Example 25, 3-(4-{5-[5-methyl-1-(4-methylbenzyl)-1H-pyrazol-3-yl]-1,2,4-oxadiazol-3-yl}phenyl)-1,3-oxazolidin-2-one], for which the IC50 (potency groups) is at most 1000 nM.

As to `Cc1ccc(Cn2nc(-c3nc4ccc(N5CCN(C)CC5)cc4[nH]3)cc2C)cc1` [Example 50, 2-[5-methyl-1-(4-methylbenzyl)-1H-pyrazol-3-yl]-6-(4-methylpiperazin-1-yl)-1H-benzimidazole], the IC50 (group >10, unit inferred) was over 10000 nM.

As to `Cc1ccc(Cn2nc(-c3nc(-c4ccc(C(C)(C)C)cc4)co3)cc2C)cc1` [Example 77, 4-(4-tert-Butylphenyl)-2-[5-methyl-1-(4-methylbenzyl)-1H-pyrazol-3-yl]-1,3-oxazole], the IC50 reads like this: (individual values) 20 nM; (potency groups) at most 1000 nM.

`Cc1ccc(Cn2nc(C3=NC(C(C)C)CO3)cc2C)cc1` (stereo not drawn) [Example 71, 4-isopropyl-2-[5-methyl-1-(4-methylbenzyl)-1H-pyrazol-3-yl]-4,5-dihydro-1,3-oxazole]: the IC50 (group >10, unit inferred) is over 10000 nM.

Compound `Cc1ccc(Cn2nc(-c3nc4ccccc4o3)cc2C)cc1` [Example 31, 2-[5-methyl-1-(4-methylbenzyl)-1H-pyrazol-3-yl]-1,3-benzoxazole] registered a half-inhibitory concentration (IC50) (potency groups) of at most 1000 nM.

Regarding `Cc1ccc(Cn2nc(-c3nc(-c4ccc(OC(F)(F)F)cc4)no3)cc2C)cc1` [Example 1], the IC50 by setting is: (individual values) 30 nM; (potency groups) at most 1000 nM.

In the case of `Cc1cc(-c2nc(-c3ccc(OC(F)(F)F)cc3)no2)nn1Cc1ccc(Cl)cc1` [Example 120, 5-[1-(4-Chlorobenzyl)-5-methyl-1H-pyrazol-3-yl]-3-[4-(trifluoromethoxy)phenyl]-1,2,4-oxadiazole], inhibition (individual values) was half-maximal at 20 nM (IC50).

In the case of `Cc1ccc(Cn2nc(-c3nc(-c4ccc(OCC(F)(F)F)cc4)no3)cc2C)cc1` [Example 18, 5-[5-Methyl-1-(4-methylbenzyl)-1H-pyrazol-3-yl]-3-[4-(2,2,2-trifluoroethoxy)phenyl]-1,2,4-oxadiazole], the IC50 is 30 nM (individual values) and at most 1000 nM (potency groups).
